Source: ChEMBL document CHEMBL3286376, “Design, synthesis and biological evaluation of hydroxy- or methoxy-substituted 5-benzylidene(thio) barbiturates as novel tyrosinase inhibitors” (Bioorg Med Chem, 2014)
Activity calls are given as the source filed them. The rule behind the calls is not given here.

Molecular target: T1, Tyrosinase (Agaricus bisporus) (UniProt O42713)
T1 sequence (whole entry): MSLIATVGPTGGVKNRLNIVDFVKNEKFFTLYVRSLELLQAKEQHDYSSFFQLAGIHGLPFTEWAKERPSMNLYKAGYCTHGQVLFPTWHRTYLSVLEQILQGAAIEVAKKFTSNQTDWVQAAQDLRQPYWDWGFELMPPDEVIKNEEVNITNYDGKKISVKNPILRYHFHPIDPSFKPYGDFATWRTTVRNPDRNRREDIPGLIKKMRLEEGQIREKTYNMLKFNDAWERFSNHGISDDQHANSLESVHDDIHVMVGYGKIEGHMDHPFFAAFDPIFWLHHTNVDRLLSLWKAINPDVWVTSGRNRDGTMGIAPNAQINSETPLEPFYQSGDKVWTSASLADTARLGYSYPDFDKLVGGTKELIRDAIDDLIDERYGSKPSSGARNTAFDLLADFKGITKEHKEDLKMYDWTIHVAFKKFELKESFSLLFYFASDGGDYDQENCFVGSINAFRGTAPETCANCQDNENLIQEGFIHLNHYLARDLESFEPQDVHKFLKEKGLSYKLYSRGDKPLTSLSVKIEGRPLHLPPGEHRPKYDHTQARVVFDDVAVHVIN
Test: Irreversible inhibition of mushroom tyrosinase diphenolase activity assessed as oxidation of L-DOPA at 5 to 10 uM

SMILES | inhibition
O=C1NC(=S)NC(=O)C1=Cc1ccc(O)c(O)c1 | Active

Molecular target: T1, Tyrosinase (Agaricus bisporus)
Test: Inhibition of mushroom tyrosinase diphenolase activity using L-DOPA as substrate assessed as formation of DOPAchrome at 100 uM preincubated for 10 mins followed by substrate addition measured for 1 min relative to control

SMILES | inhibition [%]
O=C1CC(=O)NC(=O)N1 | < 20
O=C1NC(=O)C(=Cc2cccc(O)c2)C(=O)N1 | < 20
O=C1NC(=S)NC(=O)C1=Cc1ccccc1O | < 20
O=C1NC(=O)C(=Cc2ccccc2O)C(=O)N1 | < 20
O=C1NC(=S)NC(=O)C1=Cc1ccc(O)cc1O | < 20
COc1ccc(C=C2C(=O)NC(=O)NC2=O)cc1O | < 20
COc1ccc(C=C2C(=O)NC(=S)NC2=O)cc1O | < 20
COc1cc(C=C2C(=O)NC(=O)NC2=O)cc(OC)c1OC | < 20
O=C1NC(=O)C(=Cc2c(O)cc(O)cc2O)C(=O)N1 | < 20
O=C1NC(=S)NC(=O)C1=Cc1cccc(O)c1 | < 20
O=Cc1ccc(O)c(O)c1 | < 20
O=C1NC(=O)C(=Cc2ccc(O)c(O)c2O)C(=O)N1 | < 20
O=C1NC(=S)NC(=O)C1=Cc1c(O)cc(O)cc1O | < 20
O=C1CC(=O)NC(=S)N1 | < 20
COc1cc(C=C2C(=O)NC(=S)NC2=O)cc(OC)c1OC | < 20

Molecular target: T2, Tyrosinase (Agaricus bisporus, UniProt O42713)
T2 sequence (O42713 whole entry): T1 sequence (whole entry)
Description: Inhibition of mushroom tyrosinase diphenolase activity using L-DOPA as substrate assessed as formation of DOPAchrome preincubated for 10 mins followed by substrate addition measured for 1 min

SMILES | IC50 [µM]
COc1cc(C=C2C(=O)NC(=S)NC2=O)ccc1O | 7.8
O=C1NC(=O)C(=Cc2ccc(O)c(O)c2)C(=O)N1 | 1.52
O=C1NC(=O)C(=Cc2ccc(O)cc2O)C(=O)N1 | 17.2
O=C1NC(=S)NC(=O)C1=Cc1cc(O)c(O)c(O)c1 | 7.14
O=C1NC(=O)C(=Cc2cc(O)c(O)c(O)c2)C(=O)N1 | 5.51
COc1ccc(C=C2C(=O)NC(=O)NC2=O)cc1 | 100
COc1ccc(C=C2C(=O)NC(=S)NC2=O)cc1 | 70.1
COc1cc(C=C2C(=O)NC(=O)NC2=O)ccc1O | 5.5
O=C1NC(=S)NC(=O)C1=Cc1ccc(O)c(O)c1 | 6.1
O=C1NC(=S)NC(=O)C1=Cc1ccc(O)c(O)c1O | 95.8

Molecular target: T1, Tyrosinase (Agaricus bisporus)
Test: Irreversible inhibition of mushroom tyrosinase diphenolase activity assessed as oxidation of L-DOPA at 1 to 2 uM

SMILES | inhibition
O=C1NC(=O)C(=Cc2ccc(O)c(O)c2)C(=O)N1 | Active
